Experimental data taken from ChEMBL document CHEMBL6109090, “Design, synthesis, and biological evaluation of novel and highly potent peptides targeting syntenin” (Eur J Med Chem, 2025).
Blank lines part the entries; values can stand above or below the compound they belong to. Activity calls are given as the source filed them. The calls are words filed in the database; no cut-off is given here. Non-standard residues stand in square brackets, D forms with d. Residues, ends and D or L forms follow the SMILES beside them. Phg = N[C@H](C(=O)O)c1ccccc1

Key:
[1] = Binding affinity to Syntenin PDZ1 domain (unknown origin) assessed as dissociation constant by MST analysis; set-up: species or system Homo sapiens
[2] = Stability in mouse serum at 5 uM measured after 4 hrs by HPLC analysis; format: ADME, cell-free; conditions: for Stability: serum, 4 h, 5 µM
[3] = Antiproliferative activity against human SK-RC-20 cells assessed as inhibition of cell growth measured at 24 hrs by MTT assay; format: functional, cell-based; conditions: SK-RC-20, 24 h
[4] = Antiproliferative activity against human SK-RC-20 cells assessed as inhibition of cell growth measured at 72 hrs by MTT assay; format: functional, cell-based; conditions: SK-RC-20, 72 h
[5] = Antiproliferative activity against human SK-RC-20 cells assessed as inhibition of cell growth measured at 48 hrs by MTT assay; format: functional, cell-based; conditions: SK-RC-20, 48 h
SK-RC-20 [6] = experiment: Downregulation of MT1-MMP mRNA expression in human SK-RC-20 cells at 50 to 100 nM by RT-PCR analysis; format: functional, cell-based; conditions: dose 50-100 nM
SK-RC-20 [7] = experiment: Antitumor activity in human SK-RC-20 cells xenografted in male BALB/c nude mouse model assessed as reduction in tumor volume at 5 to 15 mg/kg measured every three days for 15 days; format: functional, organism-based; conditions: dose 5-15 mg/kg, time 15.0 day
SK-RC-20 [8] = experiment: Antitumor activity in human SK-RC-20 cells xenografted in male BALB/c nude mouse model assessed as inhibition of tumor growth at 15 mg/kg measured every three days for 15 days; format: functional, organism-based; conditions: time 15.0 day
KMRC-1 = experiment: Antiproliferative activity against human KMRC-1 cells assessed as inhibition of cell growth measured after 24 to 72 hrs by MTT assay; format: functional, cell-based; conditions: time 24-72 hrs
SK-RC-20 [9] = experiment: Downregulation of MMP2 mRNA expression in human SK-RC-20 cells at 50 to 100 nM by RT-PCR analysis; format: functional, cell-based; conditions: dose 50-100 nM
[10] = Toxicity in male BALB/c nude mouse assessed as change in body weight at 5 to 15 mg/kg measured every three days for 15 days; format: organism-based; conditions: in vivo, 360 h, dose 5-15 mg/kg, time 15 day
SK-RC-20 [11] = experiment: Binding affinity to immobilized Syntenin in human SK-RC-20 cells at 5 uM incubated for 2 hrs by pull down assay; format: cell-based
UO-31 = experiment: Antiproliferative activity against human UO-31 cells assessed as inhibition of cell growth measured after 24 to 72 hrs by MTT assay; format: functional, cell-based; conditions: time 24-72 hrs
A498 = experiment: Antiproliferative activity against human A498 cells assessed as inhibition of cell growth measured after 24 to 72 hrs by MTT assay; format: functional, cell-based; conditions: time 24-72 hrs
CAKI-1 = experiment: Antiproliferative activity against human CAKI-1 cells assessed as inhibition of cell growth measured after 24 to 72 hrs by MTT assay; format: functional, cell-based; conditions: time 24-72 hrs

SMILES: CC[C@H](C)[C@H](NC(=O)[C@H](CC(=O)O)NC(=O)[C@@H](NC(=O)[C@@H](NC(=O)[C@H](Cc1c[nH]c2ccccc12)NC(=O)[C@@H](CCCCN)NC(=O)[C@H](C)NC(C)=O)C(C)C)c1ccccc1)C(N)=O
Kd [1]: 9.07 nM

SMILES: CC[C@H](C)[C@H](NC(=O)[C@@H](NC(=O)[C@@H](NC(=O)[C@@H](NC(=O)[C@H](Cc1c[nH]c2ccccc12)NC(=O)[C@@H](CCCCN)NC(=O)[C@@H](NC(C)=O)[C@@H](C)O)C(C)C)c1ccccc1)C(C)C)C(N)=O
Kd [1]: 28.3 nM

SMILES: CC[C@H](C)[C@H](NC(=O)[C@H](CC(=O)O)NC(=O)[C@@H](NC(=O)[C@@H](NC(=O)[C@H](Cc1c[nH]c2ccccc12)NC(=O)[C@H](NC(=O)[C@@H](NC(C)=O)[C@@H](C)O)C(C)C)C(C)C)c1ccccc1)C(N)=O
Kd [1]: 15.2 nM

SMILES: CC[C@H](C)[C@H](NC(=O)[C@H](CC(=O)O)NC(=O)[C@@H](NC(=O)[C@@H](NC(=O)[C@H](Cc1c[nH]c2ccccc12)NC(=O)[C@H](CCCCN)NC(=O)[C@@H](NC(C)=O)[C@@H](C)O)C(C)C)c1ccccc1)C(N)=O (Ac-TKWV[Phg]DI-NH2)
IC50 [3]: 1240 nM
Activity (SK-RC-20 [6]): Active
Activity (SK-RC-20 [7]): Active
IC50 [4]: 560 nM
Activity (SK-RC-20 [8]): Active
remaining at 4 h, 5 µM ([2]; mouse serum, read-out: Stability): ~80%
Activity (KMRC-1): Active
Activity (SK-RC-20 [9]): Active
Kd [1]: 6.15 nM
Activity [10]: Toxic
Activity (SK-RC-20 [11]): Active
Activity (UO-31): Active
Activity (A498): Active
Activity (CAKI-1): Active
IC50 [5]: 910 nM

SMILES: CC[C@H](C)[C@H](NC(=O)[C@H](CC(=O)O)NC(=O)[C@H](NC(=O)[C@@H](NC(=O)[C@H](Cc1c[nH]c2ccccc12)NC(=O)[C@@H](CCCCN)NC(=O)[C@@H](NC(C)=O)[C@@H](C)O)C(C)C)C(C)C)C(N)=O
Kd [1]: 19.7 nM

Now from value to compound, other results behind:

Kd [1]: 34.1 nM
SMILES: CC[C@H](C)[C@H](NC(=O)[C@H](CC(=O)O)NC(=O)[C@@H](NC(=O)[C@@H](NC(=O)[C@H](Cc1cnc[nH]1)NC(=O)[C@@H](CCCCN)NC(=O)[C@@H](NC(C)=O)[C@@H](C)O)C(C)C)c1ccccc1)C(N)=O

Stability [2]: Unstable
SMILES: CC[C@H](C)[C@H](NC(=O)[C@H](CC(=O)O)NC(=O)[C@@H](NC(=O)[C@@H](NC(=O)[C@H](Cc1c[nH]c2ccccc12)NC(=O)[C@H](Cc1cnc[nH]1)NC(=O)[C@@H](N)CO)[C@@H](C)O)[C@@H](C)CC)C(=O)O (H-SHWTIDI-OH)

Stability [2]: Unstable
Kd [1]: 0.3 nM
SMILES: CC[C@H](C)[C@H](NC(=O)[C@H](CC(=O)O)NC(=O)[C@@H](NC(=O)[C@@H](NC(=O)[C@H](Cc1c[nH]c2ccccc12)NC(=O)[C@H](Cc1cnc[nH]1)NC(=O)[C@H](CO)NC(=O)[C@@H](CCCNC(=N)N)NC(=O)[C@H](CCCNC(=N)N)NC(=O)[C@@H](CCCNC(=N)N)NC(=O)[C@H](CCCNC(=N)N)NC(=O)[C@@H](CCCNC(=N)N)NC(=O)CNC(=O)[C@@H](CCCNC(=N)N)NC(=O)[C@H](CCCNC(=N)N)NC(=O)[C@@H](CCCNC(=N)N)NC(C)=O)C(C)(C)C)C1CCCCC1)C(=O)O
IC50 [3]: 22100 nM
IC50 [4]: 9710 nM
IC50 [5]: 14400 nM
